# Measurements from patent US6300368A, “Anilide derivatives and antiarrhythmic agents containing the same” (priority 1998, dated 2001).
# System: aconitin-induced atrial fibrillation
# Experiment: Aconitin-induced atrial fibrillation model in anaesthetized dogs (Pharmacological Trial 1)
# Assay type: in vivo, dog
# Conditions: Canis lupus familiaris; intravenous, anesthetized dogs, as hydrochloride; read-out: minimum dose level which suppresses atrial fibrillation
# Description: Pharmacological Trial 1: Evaluation of effectiveness in aconitin-induced atrial fibrillation model (dogs) Evaluation was performed according to K. Hashimoto (Jpn. J. Pharmacol., Vol. 46, 349-358, 1988) as follows:
# Method: Dog was anesthetized and thoracotomy was made. Persistent atrial fibrillation was induced by placing a piece of filter paper impregnated with 0.5% aconitin solution (20 to 30 μl) on the right atrium. […] Onset and suppression of atrial fibrillation were monitored electrocardiographically by placing Ag--AgCl bipolar electrode on the right atrial auricle.
# Results: Each compound in Examples 1 to 87 suppressed atrial fibrillation at least following dose level (all compounds were used in the form of hydrochloride).
row,Molecule,minimal effective dose [mg/kg]
1,"CCNCCOc1ccc(NC(=O)c2ccoc2)cc1.Cl [Example 25, 4'-[(2-Ethylamino)ethoxy]-3-furanilide Hydrochloride]",10
2,"CCNCCOc1ccc(NC(=O)C2CCOCC2)cc1.Cl [Example 3, 4'-[2-(ethylamino)ethoxy]-3,4,5,6-tetrahydro-2H-pyran-4-carboxanilide Hydrochloride]",10
3,"COc1cccc(OC)c1C(=O)Nc1ccc(OCCNC2CC2)cc1 [Example 50, 4'-[2-(Cyclopropylamino)ethoxy]-2,6-dimethoxybenzanilide]",3
4,"CCN(CC)CCOc1ccc(NC(=O)c2ccccc2NS(C)(=O)=O)cc1.Cl [Example 9, 4'-[2-(Diethylamino)ethoxy]-2-(methanesulfonamido)benzanilide Hydrochloride]",10
5,"COCCC(=O)Nc1ccc(OCCNC(C)C)c(OC)c1 [Example 57, 4'-[2-(Isopropylamino)ethoxy]-3-methoxy-3-methoxypropananilide]",10
6,"COCCNCCOc1ccc(NC(=O)C2CCOC2)cc1.Cl (stereo not shown) [Example 43, 4'-[2-[(2-Methoxyethyl)amino]ethoxy]-2,3,4,5-tetrahydro-3-furanilide Hydrochloride]",10
7,"COCCNCCOc1ccc(NC(=O)CCOC)cc1.Cl [Example 44, 4'-[2-[(2-Methoxyethyl)amino]ethoxy]-3-methoxy propananilide Hydrochloride]",10
8,"Cc1cc(NC(=O)c2ccccc2S(C)(=O)=O)ccc1OCCNC(C)C.Cl [Example 76, 4'-[2-(Isopropylamino)ethoxy]-2-methanesulfonyl-3'-methylbenzanilide Hydrochloride]",3
9,"COCCNCCOc1ccc(NC(=O)c2ccoc2)cc1.Cl [Example 45, 4'-[2-[(2-Methoxyethyl)amino]ethoxy]-3-furanilide Hydrochloride]",10
10,"CCOCCNCCOc1ccc(NC(=O)c2ccccc2NS(C)(=O)=O)cc1 [Example 47, 4'-[2-[(2-Ethoxyethyl)amino]ethoxy]-2-(methanesulfonamido)benzanilide]",3
11,"CS(=O)(=O)Nc1ccccc1C(=O)Nc1ccc(OCCN2CCCC2)cc1 [Example 17, 2-Methanesulfonamido-4'-[2-(1-pyrrolidinyl)ethoxy]benzanilide]",10
12,"CCCN(CCC)CCOc1ccc(NC(=O)c2c(OC)cccc2OC)cc1 [Example 13, 4'-[2-(Dipropylamino)ethoxy]-2,6-dimethoxybenzanilide]",10
13,"CCN(CC)CCOc1ccc(NC(=O)c2c(OC)cccc2OC)c(C)c1 [Example 73, 4'-[2-(Diethylamino)ethoxy]-2-dimethoxy-2'-methyl Benzanilide]",3
14,"COc1cccc(OC)c1C(=O)Nc1ccc(OCCNC(C)(C)C)cc1 [Example 39, 2,6-Dimethoxy-4'-[2-(tert-butylamino)ethoxy]benzanilide]",10
15,"COc1cc(NC(=O)c2ccccc2S(C)(=O)=O)ccc1OCCNC(C)C.Cl [Example 59, 4'-[2-(Isopropylamino)ethoxy]-2-methanesulfonyl-3'-methoxybenzanilide Hydrochloride]",10
16,"Cl.O=C(Nc1ccc(OCCNC2CC2)cc1)C1CCOC1 (stereo not shown) [Example 51, 4'-[2-(Cyclopropylamino)ethoxy]-2,3,4,5-tetrahydro-3-furanilide Hydrochloride]",3
17,"COc1cccc(OC)c1C(=O)Nc1ccc(OCCNC2CCCCC2)cc1 [Example 55, 4'-[2-(Cyclohexylamino)ethoxy]-2,6-dimethoxybenzanilide]",0.3
18,"CCCN(CCC)CCOc1ccc(NC(=O)c2c(C)cccc2C)cc1 [Example 14, 4'-[2-(Dipropylamino)ethoxy]-2,6-dimethylbenzanilide]",3
19,"CCCNCCOc1ccc(NC(=O)C2CCOCC2)cc1.Cl [Example 28, 4'-[2-(Propylamino)ethoxy]-3,4,5,6-tetrahydro-2H-pyran-4-carboxanilide Hydrochloride]",3
20,"CCNCCOc1ccc(NC(=O)C2CCOC2)cc1.Cl (stereo not shown) [Example 23, 4'-[(2-Ethylamino)ethoxy]-2,3,4,5-tetrahydro-3-furanilide Hydrochloride]",3
21,"CCNCCOc1ccc(NC(=O)c2ccccc2S(C)(=O)=O)cc1.Cl [Example 22, 4'-[(2-Ethylamino)ethoxy]-2-(methanesulfonyl)benzanilide Hydrochloride]",3

row,Molecule,minimal effective dose [mg/kg]
1,"CCCS(=O)(=O)Nc1ccccc1C(=O)Nc1ccc(OCCN(CC)CC)cc1.Cl [Example 11, 4'-[2-(Diethylamino)ethoxy]-2-(propanesulfonamido)benzanilide Hydrochloride]",3
2,"COc1cc(NC(=O)c2ccoc2)ccc1OCCNC(C)C.Cl [Example 60, 4'-[2-(Isopropylamino)ethoxy]-3'-methoxy-3-furanilide Hydrochloride]",10
3,"CC(C)NCCOc1ccc(NC(=O)C2CCOCC2)cc1.Cl [Example 34, 4'-[2-(Isopropylamino)ethoxy]-3,4,5,6-tetrahydro-2H-pyran-4-carboxanilide Hydrochloride]",3
4,"CCCNCCOc1ccc(NC(=O)C2CCOC2)cc1.Cl (stereo not shown) [Example 27, 4'-[2-(Propylamino)ethoxy]-2,3,4,5-tetrahydro-3-furanilide Hydrochloride]",3
5,"CCNCCOc1c(C)cc(NC(=O)c2ccccc2NS(C)(=O)=O)cc1C.Cl [Example 80, 4'-[2-(Ethylamino)ethoxy]-2-methanesulfonamido-3',5'-dimethylbenzanilide Hydrochloride]",3
6,"COCCC(=O)Nc1ccc(OCCNC(C)C)c(C)c1.Cl [Example 78, 4'-[2-(Isopropylamino)ethoxy]-3-methoxy-3'-methylpropananilide Hydrochloride]",3
7,"CCCNCCOc1ccc(NC(=O)c2c(OC)cccc2OC)cc1 [Example 26, 2,6-Dimethoxy-4'-[2-(propylamino)ethoxy]benzanilide]",10
8,"Cc1cc(NC(=O)c2ccccc2NS(C)(=O)=O)ccc1OCCNC(C)C.Cl [Example 75, 4'-[2-(Isopropylamino)ethoxy]-2-methanesulfonamido-3'-methylbenzanilide Hydrochloride]",10
9,CS(=O)(=O)Nc1ccccc1C(=O)Nc1ccc(OCCNC2CCCC2)cc1 [Example 54],10
10,"CCN(CC)CCOc1ccc(NC(=O)c2ccccc2NS(=O)(=O)CC)cc1.Cl [Example 10, 4'-[2-(Diethylamino)ethoxy]-2-(ethanesulfon amido)benzanilide Hydrochloride]",3
11,"CC(C)NCCOc1ccc(NC(=O)c2ccccc2S(C)(=O)=O)cc1.Cl [Example 32, 4'-[2-(Isopropylamino)ethoxy]-2-(methanesulfonyl) benzanilide Hydrochloride]",10
12,"COc1cccc(OC)c1C(=O)Nc1ccc(OCCNCC(C)C)cc1 [Example 38, 4'-[2-(Isobutylamino)ethoxy]-2,6-dimethoxybenzanilide]",3
13,"CCN(CC)CCOc1ccc(NC(=O)c2c(OC)cccc2OC)cc1OC [Example 63, 4'-[2-(Diethylamino)ethoxy]-2,6-dimethoxy-3-methoxybenzanilide]",10
14,"CCN(CC)CCOc1ccc(NC(=O)c2c(OC)cccc2OC)cc1.Cl [Example 2, 4'-[2-(diethylamino)ethoxy]-2,6-dimethoxybenzanilide Hydrochloride]",10
15,"Cc1cccc(C)c1C(=O)Nc1ccc(OCCN2CCOCC2)cc1 [Example 19, 2,6-Dimethyl-4'-(2morpholinoethoxy)benzanilide]",3
16,"CCNCCOc1c(C)cc(NC(=O)c2ccccc2S(C)(=O)=O)cc1C.Cl [Example 81, 4'-[2-(Ethylamino)ethoxy]-2-methanesulfonyl-3',5'-dimethylbenzanilide Hydrochloride]",3
17,"COc1cccc(OC)c1C(=O)Nc1cc(C)c(OCCNC(C)C)c(C)c1.Cl [Example 82, 4'-[2-(Isopropylamino)ethoxy]-2,6-dimethoxy-3',5'-dimethyl benzanilide Hydrochloride]",10
18,"CC(C)NCCOc1ccc(NC(=O)c2ccccc2NS(C)(=O)=O)cc1NS(C)(=O)=O.Cl [Example 66, 4'-[2-(Isopropylamino)ethoxy]-2-methanesulfonamido-3'-(methanesulfonamido)benzanilide Hydrochloride]",3
19,"COc1cccc(OC)c1C(=O)Nc1ccc(OCCNC(C)C)c(NS(C)(=O)=O)c1 [Example 65, 4'-[2-(Isopropylamino)ethoxy]-3'-methanesulfonamido-2,6-dimethoxybenzanilide]",10
20,"CS(=O)(=O)Nc1cc(NC(=O)c2ccccc2NS(C)(=O)=O)ccc1OCCNC1CCCC1.Cl [Example 68, 4'-[2-(Cyclopentylamino)ethoxy]-2-methanesulfonamido-3'-(methanesulfonamido)benzanilide Hydrochloride]",10
21,"Cc1cc(NC(=O)C2CCOCC2)cc(C)c1OCCNC(C)C.Cl [Example 85, 4'-[2-(Isopropylamino)ethoxy]-3',5'-dimethyl-3,4,5,6-tetrahydro-2H-pyran-4-carboxanilide Hydrochloride]",10

# Same assay, conditions: intravenous, anesthetized dogs, as hydrochloride
row,Molecule,minimum dose level which suppresses atrial fibrillation [mg/kg]
1,"4'-[2-(Dimethylamino)ethoxy]-2,6-diethylbenzanilide [Example 7]",3.0
